# Assay results taken from article PMC12256496, “An advancement in developmental and reproductive toxicity (DART) risk assessment: evaluation of a bioactivity and exposure-based NAM toolbox” (Frontiers in Toxicology, 2025).
# “And” between values parts separate entries of the source, which are not always exact repeats. Identical values can stand only once. Like-named read-outs stand apart in the source and are kept apart here.
# Columns and labels:
# [1] = Human in vivo PK data: concentration-dose ratio (CDR) and toxicokinetic variability factor (TKVF); set-up: 95% percentile (Conc-dose-ratio): unit not given here;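 note: Literature-pooled human in vivo PK data, plasma, serum or cord blood concentrations per daily dose, weighted by study population size across non-pregnant, pregnant and fetal groups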
# [2] = skin absorption / systemic exposure dose for dermal exposure (PBK parameter); format: in vitro ADME
# From the text: Where a SED (systemic exposure dose) was reported systemic exposure from a dermal administration was modelled as a slow intravenous infusion of the SED, which corrects the applied dose for the rate of skin absorption (%). Where no SED was available dermal exposure route was predicted by the dermal module in GastroPlus® administration.
# [3] = renal clearance, Fup*GFR (PBK parameter); settings: method Fup*GFR
# [4] = Bioactivity exposure ratio (BER): minimum platform PoD / estimated Cmax; settings: low-risk exposure scenario of the compound
# [5] = tested on: human developmental and reproductive toxicity; settings: cited from earlier work
# [6] = tested on: developmental or reproductive toxicity in animal or human; settings: cited from earlier work
# [7] = cited from earlier work; for ADI: ref FSCJ, EFSA, SCF, JMPR as named in the cell; for MoS: existent consumer risk assessment for the cosmetic use scenario, ref SCCS / SCCP / SCCNFP
# [8] = Solubility pH 7, cited from earlier work
# rats = settings: two developmental toxicity studies in the rat; ref Supplementary Data Sheet 1; cited from earlier work
# [9] = evidence of developmental or reproductive toxicity in animal or human, irrespective of exposure/dose, ref Supplementary Data Sheet 1
# [10] = Non-Pregnant population (reference)
# [11] = Non-Pregnant population, TKVF95 = p95 / weighted mean concentration-dose ratio
# [12] = Pregnant population (reference)
# [13] = Pregnant population, TKVF95 = p95 / weighted mean concentration-dose ratio
# [14] = Foetus, oral, combined (tretinoin, retinyl palmitate, dietary retinoids)
# [15] = Non-Pregnant, dermal, formulation radiolabelled tretinoin
# [16] = Non-Pregnant, oral, combined (tretinoin, retinyl palmitate, dietary retinoids)
# [17] = Pregnant, oral, combined (tretinoin, retinyl palmitate, dietary retinoids)
# [18] = Non-Pregnant, combined (oral+IV)
smiles,measurement,setting,value
Cn1c(=O)c2c(ncn2C)n(C)c1=O [Caffeine],TKVF,"[1]; female, human, in vivo",2.42
same,TKVF,"[1]; female, human, in vivo, po",2.42
same,TKVF,"[1]; human, in vivo, po",2.84
CC(C)(CO)C(O)C(=O)NCCCO (stereo not drawn) [Panthenol],Diffusivity Stratum Corneum,[2]; optimised based on [12],2.29E-13 cm^2/s
same,Partition Coefficient Stratum Corneum/Water,[2]; optimised based on [12],1.96
same,Renal Clearance,[3],6.348 L/h
same,BER,[4],< 1
C[C@@H]1CCO[C@H]2Cn3cc(C(=O)NCc4ccc(F)cc4F)c(=O)c(O)c3C(=O)N12 [Dolutegravir],Exposure risk (DART risk classification),"[5]; Pharmaceutical, 50 mg/daily, oral, ref Supplementary Data Sheet 1",High Risk
same,DART Hazard Call,[6]; [9],Toxic
same,CDR fold difference to non-pregnant,[1]; Fetus population,0.46
same,CDR fold difference to pregnant,[1]; Fetus population,0.65
same,TKVF,"[1]; Fetus population, TKVF95 = p95 / weighted mean concentration-dose ratio",1.40
same,95% percentile (Conc-dose-ratio),"[1]; Foetus, oral",0.11
same,Fold Difference to non-pregnant,"[1]; Foetus, oral",0.46
same,Fold Difference to pregnant,"[1]; Foetus, oral",0.65
same,Mean Conc-dose -ratio,"[1]; Foetus, oral",0.08 uM/(mg/day]
same,TKVF,"[1]; Foetus, oral",1.40
same,CDR fold difference to non-pregnant,[1]; [10],1.00
same,TKVF,[1]; [11],1.87
same,95% percentile (Conc-dose-ratio),"[1]; Non-Pregnant, oral",0.33
same,Fold Difference to non-pregnant,"[1]; Non-Pregnant, oral",1.00
same,Mean Conc-dose -ratio,"[1]; Non-Pregnant, oral",0.18 uM/(mg/day]
same,TKVF,"[1]; Non-Pregnant, oral",1.87
same,CDR fold difference to non-pregnant,[1]; Pregnant population,0.70
same,CDR fold difference to pregnant,[1]; [12],1.00
same,TKVF,[1]; [13],2.64
same,95% percentile (Conc-dose-ratio),"[1]; Pregnant, oral",0.33
same,Fold Difference to non-pregnant,"[1]; Pregnant, oral",0.70
same,Fold Difference to pregnant,"[1]; Pregnant, oral",1.00
same,Mean Conc-dose -ratio,"[1]; Pregnant, oral",0.12 uM/(mg/day]
same,TKVF,"[1]; Pregnant, oral",2.64
C[n+]1ccc(-c2cc[n+](C)cc2)cc1 [Paraquat],DART Hazard Call,[6]; [9],Non Toxic
same,ADI,[7],ADI set by FSCJ (0.0045 mg/kg/day)
same,CDR fold difference to non-pregnant,[1]; Fetus population,0.06
same,CDR fold difference to pregnant,[1]; Fetus population,1.15
same,Fold Difference to non-pregnant,"[1]; Foetus, oral",0.056
same,Fold Difference to pregnant,"[1]; Foetus, oral",1.15
same,Mean Conc-dose -ratio,"[1]; Foetus, oral",0.000247 uM/(mg/day]
same,CDR fold difference to non-pregnant,[1]; [10],1.00
same,TKVF,[1]; [11],3.16
same,95% percentile (Conc-dose-ratio),"[1]; Non-Pregnant, oral",0.014
same,Fold Difference to non-pregnant,"[1]; Non-Pregnant, oral",1.00
same,Mean Conc-dose -ratio,"[1]; Non-Pregnant, oral",0.0044 uM/(mg/day]
same,TKVF,"[1]; Non-Pregnant, oral",3.16
same,CDR fold difference to non-pregnant,[1]; Pregnant population,0.05
same,CDR fold difference to pregnant,[1]; [12],1.00
same,Fold Difference to non-pregnant,"[1]; Pregnant, oral",0.05
same,Fold Difference to pregnant,"[1]; Pregnant, oral",1.00
same,Mean Conc-dose -ratio,"[1]; Pregnant, oral",0.000214 uM/(mg/day]
Cn1c(=O)c2[nH]cnc2n(C)c1=O [Theophylline],TKVF,"[1]; female, human, in vivo",1.73
CCN(CC)C(=O)c1cccc(C)c1 [DEET],Exposure risk (DART risk classification),[5],Low Risk
same,DART Hazard Call,[6],Uncertain
same,95% percentile (Conc-dose-ratio),[1]; in vivo,0.0013
same,Mean Conc-dose -ratio,[1]; in vivo,0.00066 uM/(mg/day]
same,TKVF,[1]; in vivo,1.97
CC1=C(/C=C/C(C)=C/C=C/C(C)=C/C(=O)O)C(C)(C)CCC1 [all-tr-Retinoic Acid],95% percentile (Conc-dose-ratio),[1]; [14],0.00556
same,Fold Difference to non-pregnant,[1]; [14],0.55
same,Fold Difference to pregnant,[1]; [14],0.71
same,Mean Conc-dose -ratio,[1]; [14],0.005 uM/(mg/day]
same,TKVF,[1]; [14],1.06
same,95% percentile (Conc-dose-ratio),[1]; [15],0.00249
same,Mean Conc-dose -ratio,[1]; [15],0.0015 uM/(mg/day]
same,TKVF,[1]; [15],1.66
same,95% percentile (Conc-dose-ratio),[1]; [16],0.02
same,Fold Difference to non-pregnant,[1]; [16],1.00
same,Mean Conc-dose -ratio,[1]; [16],0.010 uM/(mg/day]
same,TKVF,[1]; [16],2.14
same,95% percentile (Conc-dose-ratio),[1]; [17],0.0108
same,Fold Difference to non-pregnant,[1]; [17],0.77
same,Fold Difference to pregnant,[1]; [17],1.00
same,Mean Conc-dose -ratio,[1]; [17],0.007 uM/(mg/day]
same,TKVF,[1]; [17],1.47
"CCCCCCC(O)CO (stereo not drawn) [1,2-Octanediol]",Exposure risk (DART risk classification),"[5]; Cosmetic, 5% in body lotion, dermal, ref Supplementary Data Sheet 1",Low Risk
same,DART Hazard Call,[6]; [9],Non Toxic
same,Renal Clearance,[3],5.129 L/h
C[C@@H]1C[C@H]2[C@@H]3CCC4=CC(=O)C=C[C@]4(C)[C@@]3(F)[C@@H](O)C[C@]2(C)[C@@]1(O)C(=O)CO [Dexamethasone],DART Hazard Call,[6]; [9],Toxic
same,CDR fold difference to non-pregnant,"[1]; female, human, in vivo",1.50
same,TKVF,"[1]; female, human, in vivo",2.51
same,CDR fold difference to non-pregnant,"[1]; human, in vivo",1.00
same,TKVF,"[1]; human, in vivo",1.99
O=P1(N(CCCl)CCCl)NCCCO1 (stereo not drawn) [Cyclophosphamide],Exposure risk (DART risk classification),"[5]; Pharmaceutical, 60 mg/daily, oral, ref Supplementary Data Sheet 1",High Risk
same,DART Hazard Call,[6]; [9],Toxic
same,CDR fold difference to non-pregnant,[1]; [10],1.00
same,TKVF,[1]; [11],3.15
same,95% percentile (Conc-dose-ratio),[1]; [18],0.09
same,Fold Difference to non-pregnant,[1]; [18],1.00
same,Mean Conc-dose -ratio,[1]; [18],0.030 uM/(mg/day]
same,TKVF,[1]; [18],3.15
same,CDR fold difference to non-pregnant,[1]; Pregnant population,2.85
same,Fold Difference to non-pregnant,"[1]; Pregnant, IV",2.85
same,Mean Conc-dose -ratio,"[1]; Pregnant, IV",0.084 uM/(mg/day]
O=S(=O)(O)NC1CCCCC1 [Cyclamate],Exposure risk (DART risk classification),"[5]; Dietary, 420 mg/daily, oral, ref Supplementary Data Sheet 1",Low Risk
same,ADI,[7],ADI set by SCF (7mg/kg/day)
same,Aqueous Solubility,"[8]; median, ref [5],[8]",84.5 mg/mL
O=C(O)c1ccccc1O [Salicylate],MoS,[7],Used safely in cosmetic products. Existent consumer risk assessment from the SCCS. MoS >50
same,TKVF,[1]; [11],1.96
same,TKVF,"[1]; Non-Pregnant, dermal, formulation Sodium salicylate",1.52
same,TKVF,"[1]; Non-Pregnant, oral, formulation Acetyl salicylic acid",1.96
same,TKVF,"[1]; Non-Pregnant, oral, formulation Sodium salicylate",1.06
same,TKVF,[1]; [13],2.34
same,TKVF,"[1]; Pregnant, oral, formulation Acetyl salicylic acid",2.34
O=CCCCC=O [Glutaraldehyde],highest dose tested without evidence of developmental toxicity,rats,50 mg/kg/day and 68 mg/kg/day
same,Exposure risk (DART risk classification),"[5]; Cosmetic, 0.1% in body lotion, dermal, ref Supplementary Data Sheet 1",Low Risk
same,DART Hazard Call,[6]; [9],Non Toxic
same,Chronic Dietary RfD,[7]; ref EPA,Chronic Dietary RfD set by EPA (0.16 mg/kg/day)
same,Aqueous Solubility,[8]; ref [7],167.2 mg/mL
same,Diffusivity Dermis,[2]; optimised based on [10],1.00E-07 cm^2/s
same,Diffusivity Stratum Corneum,[2]; optimised based on [10],1.00E-09 cm^2/s
same,Diffusivity Viable Epidermis,[2]; optimised based on [10],5.00E-08 cm^2/s
same,Partition Coefficient Stratum Corneum/Water,[2]; optimised based on [10],2.30
same,Partition Coefficient Viable Epidermis/Water,[2]; optimised based on [10],3.00
same,Renal Clearance,[3],6.185 L/h
COc1ccc(C(=O)c2ccccc2)c(O)c1 [2-Hydroxy-4-methoxybenzophenone],Exposure risk (DART risk classification),"[5]; Cosmetic, 6% in sunscreen, dermal, ref Supplementary Data Sheet 1",Low Risk
same,DART Hazard Call,[6]; [9],Non Toxic
same,MoS,[7],Used safely in cosmetic products. Existent consumer risk assessment from the SCCS. MoS 38.
same,95% percentile (Conc-dose-ratio),"[1]; Non-Pregnant, dermal",0.000717
same,Mean Conc-dose -ratio,"[1]; Non-Pregnant, dermal",0.00025 uM/(mg/day]
same,TKVF,"[1]; Non-Pregnant, dermal",2.84
C[C@H]1O[C@@H](O[C@H]2[C@@H](O)C[C@H](O[C@H]3[C@@H](O)C[C@H](O[C@H]4CC[C@@]5(C)[C@H](CC[C@@H]6[C@@H]5C[C@@H](O)[C@]5(C)[C@@H](C7=CC(=O)OC7)CC[C@]65O)C4)O[C@@H]3C)O[C@@H]2C)C[C@H](O)[C@@H]1O [Digoxin],TKVF,"[1]; female, human, in vivo",2.35
same,TKVF,"[1]; female, human, in vivo, po",2.35
same,BER,[4],< 1
"CC/C(=C(/CC)c1ccc(O)cc1)c1ccc(O)cc1 [Diethylstilbestrol (DES), Diethylstilbestrol]",Exposure risk (DART risk classification),"[5]; Pharmaceutical, 0.5 mg/daily, oral, ref Supplementary Data Sheet 1",High Risk
same,DART Hazard Call,[6]; [9],Toxic
